From patent US20220133714A1, “EXTRACELLULAR MATRIX MODULATING AGENT” (KOWA COMPANY, LTD., priority 2019, published 2022)

Columns and labels:
human fibroblasts = conditions: cited from earlier work
[1] = test system: corneal endothelial cells; conditions: cited from earlier work; for apoptosis and endothelial-mesenchymal transition (EMT) of corneal endothelial cells / cell adhesion, migration, proliferation and wound healing: in vitro and in vivo animal models
[2] = test system: corneal endothelial cells of normal donors; assay: Real-time PCR expression of FECD-associated matrix genes in normal donor endothelial-Descemet membrane specimens; format: cell-based, human; conditions: normal EDM specimens, 24 h
Description: FIG. 3 illustrates Relative expression of FECD-associated matrix genes in corneal endothelial cells of normal donors (n=6) without and with incubation in 10-100 μM K-115 for 24 h. Gene expression was analyzed by quantitative real-time PCR and normalized to GAPDH (*p<0.01).
(§1) Endothelial-Descemet membrane (EDM)-complexes from normal donor corneas and from FECD patients during DMEK surgery were prepared. EDM scrolls were dissected into two halves and incubated for 24-72 hours in CorneaMax storage medium (Eurobio) with or without K-115 (Selleck Chemicals). Gene expression analysis was performed using specific real-time PCR arrays for FECD-associated candidate genes as well as RT2 Profiler PCR Arrays (Quiagen). Array results were again validated using gene-specific real-time PCR assays. Protein expression analysis was performed by Western blotting.

[3] = test system: corneal endothelial cells of FECD patients; assay: Real-time PCR expression of FECD-associated matrix genes in FECD patient endothelial-Descemet membrane specimens; format: cell-based, human; conditions: 30 μM, 24 hours, vs untreated controls
Description: (§2) FIG. 4 illustrates Relative expression of FECD-associated matrix genes in corneal endothelial cells of FECD patients (n=20) without and with incubation in 30 μM K-115 for 24 h. Gene expression was analyzed by quantitative real-time PCR and normalized to GAPDH (*p<0.01, **p<0.001). Endothelial-Descemet membrane (EDM)-complexes from normal donor corneas and from FECD patients during DMEK surgery were prepared. EDM scrolls were dissected into two halves and incubated for 24-72 hours in CorneaMax storage medium (Eurobio) with or without K-115 (Selleck Chemicals). Gene expression analysis was performed using specific real-time PCR arrays for FECD-associated candidate genes as well as RT2 Profiler PCR Arrays (Quiagen). Array results were again validated using gene-specific real-time PCR assays. Protein expression analysis was performed by Western blotting. Then, gene expression levels in FECD specimens were analyzed, which were incubated in 30 μM K-115 for 24 hours. […] In order to identify additional matrix genes that may be transcriptionally regulated by K-115, gene expression profiling using a Human Extracellular Matrix and Adhesion Molecule PCR array were performed. With this approach, downregulation of fibronectin and collagen types I and III and detected additional downregulation of vitronectin and collagen types V and XIV in corneal endothelial cells from FECD patients (data not shown) were confirmed.

[4] = test system: corneal endothelial cells of FECD patients; assay: Western blot protein expression in FECD specimens; format: cell-based, human; conditions: 30 μM, 72 hours of incubation
Description: FIG. 5 illustrates Western Blot analysis of fibronectin in corneal endothelial cells of FECD patients (n=4); equal loading of samples was verified by β-actin.
as §1
Then, gene expression levels in FECD specimens were analyzed, which were incubated in 30 μM K-115 for 24 hours. […] In order to identify additional matrix genes that may be transcriptionally regulated by K-115, gene expression profiling using a Human Extracellular Matrix and Adhesion Molecule PCR array were performed. With this approach, downregulation of fibronectin and collagen types I and III and detected additional downregulation of vitronectin and collagen types V and XIV in corneal endothelial cells from FECD patients (data not shown) were confirmed.

[5] = test system: corneal endothelial cells from FECD patients; assay: Human Extracellular Matrix and Adhesion Molecule PCR array gene expression profiling; format: cell-based; conditions: data not shown
Description: as §2, with “Endothelial-Descemet” for “FIG. 4 illustrates Relative expression of FECD-associated matrix genes in corneal endothelial cells of FECD patients (n=20) without and with incubation in 30 μM K-115 for 24 h. Gene expression was analyzed by quantitative real-time PCR and normalized to GAPDH (*p<0.01, **p<0.001). Endothelial-Descemet”

## O=S(=O)(c1cccc2cnccc12)N1CCCNCC1 [Fasudil]
Human fibroblasts
  expression of α-SMA, MLCP, LIMK1, p-cofilin, collagen I, and collagen III protein: attenuated

## Cc1cncc2cccc(S(=O)(=O)N3CCCNC[C@@H]3C)c12 [H-1152]
[1]
  apoptosis and endothelial-mesenchymal transition (EMT) of corneal endothelial cells: suppressed
  cell adhesion, migration, proliferation and wound healing: stimulated

## C[C@H]1CNCCCN1S(=O)(=O)c1cccc2cncc(F)c12 [K-115, (S)-(−)-1-(4-fluoro-5-isoquinolinesulfonyl)-2-methyl-1,4-homopiperazine]
[2]; 10-100 μM, normalized to GAPDH
  agrin gene expression: significantly downregulated
  collagen type I gene expression: significantly downregulated
  collagen type III gene expression: significantly downregulated
  fibronectin gene expression: significantly downregulated
  α-smooth muscle actin (α-SMA) gene expression: significantly downregulated
  β-actin gene expression: significantly downregulated
[2]; tested 10-100 μM
  most effective concentration for downregulation of matrix genes: 30 µM
[3]
  TGFBI gene expression: upregulated
  agrin gene expression: significant reduction
  collagen type I gene expression: significant reduction
  collagen type III gene expression: significant reduction
  collagen type XVI gene expression: upregulated
  fibronectin gene expression: significant reduction
  integrin a4 (ITGA4) gene expression: upregulated
  α-SMA gene expression: significant reduction
[4]
  collagen type III protein level: significantly downregulated
[4]; Western blot
  fibronectin protein level: significantly downregulated
[5]
  collagen type I gene expression (PCR array): downregulation
  collagen type III gene expression (PCR array): downregulation
  collagen type V gene expression (PCR array): downregulation
  collagen type XIV gene expression (PCR array): downregulation
  fibronectin gene expression (PCR array): downregulation
  vitronectin gene expression (PCR array): downregulation
[1]
  EMT markers: downregulation
  endothelial cell proliferation and wound healing: stimulating
  functional endothelial markers: upregulation

## O=C(NCc1ccccc1)c1csc(Nc2ccncn2)n1 [Thiazovivin]
[1]
  apoptosis and endothelial-mesenchymal transition (EMT) of corneal endothelial cells: suppressed
  cell adhesion, migration, proliferation and wound healing: stimulated

## C[C@@H](N)[C@H]1CC[C@H](C(=O)Nc2ccncc2)CC1 [Y-27632]
[1]
  apoptosis and endothelial-mesenchymal transition (EMT) of corneal endothelial cells: suppressed
  cell adhesion, migration, proliferation and wound healing: stimulated
